Reference: patent US20180327367A1, “MACROCYCLIC BROAD SPECTRUM ANTIBIOTICS” (priority 2015, published 2018)
In brackets after ≈: the same amount, converted by molar mass. Read-outs that look alike come from different tables or passages of the source.

Experiments:
[1] = tested on: Methicillin Resistant Staphylococcus aureus strain USA 300, NRS384; assay: Minimum inhibitory concentration, broth micro-dilution (CLSI), S. aureus; assay type: cell-based; settings: Staphylococcus aureus, MRSA / NRS 384 / USA300, 22 h, 35° C., 22 hours
Summary of the method: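 Ten-point 2-fold series began at 4 μg/mL in protocol 2 and 0.5 μg/mL in protocol 3, in cation-adjusted MHB plus 0.002% Tween-80. Bacteria added to OD600 0.0005 final and incubated at 35° C for 22 hours per CLSI microdilution.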

[2] = tested on: Escherichia coli MC4100 harboring the IMP4213 (E. coli IMP); assay: microbe, parasite or virus in culture; assay type: cell-based; settings: Escherichia coli, 22 h, read-out: MIC (μg/mL) E. coli IMP, E. coli MC4100 IMP4213, increased outer-membrane permeability; 35° C., 22 hours
Summary of the method: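 Colonies grown 20 hours at 35° C were suspended in cation-adjusted Mueller Hinton Broth with 0.002% Tween-80. Cells were then added to 2-fold compound dilutions starting at 4 or 0.5 μg/mL, at OD600 0.0005.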

[3] = tested on: Escherichia coli ATCC 25922; assay: Minimum inhibitory concentration, broth micro-dilution (CLSI), E. coli; assay type: cell-based; settings: Escherichia coli, ATCC25922, 22 h, 35° C., 22 hours
[4] = target: T1, SpsB (Staphylococcus aureus signal peptidase) (Staphylococcus aureus, UniProt P0A070); assay: cell-based; assay type: biochemical; settings: SpsB IC50, whole-cell S. aureus (USA300 background, overexpressing SpsB) as SpsB source; fluorogenic peptide substrate, kinetic read 30 min
T1 construct: This assay uses a suspension of Staphylococcus aureus cells as a source of SpsB instead of recombinant SpsB protein; endogenous in cells; host or cells: S. aureus, USA300 background, overexpressing SpsB (whole-cell suspension from frozen pellets)
Protocol: A kinetic fluorogenic enzyme activity assay was used to assess inhibition of SpsB (Staphylococcus aureus signal peptidase) activity and IC50s were determined. This assay uses a suspension of Staphylococcus aureus cells as a source of SpsB instead of recombinant SpsB protein.
Cell preparation: Luria broth (LB) was inoculated with S. aureus (USA300 background, overexpressing SpsB) and shaken at 37° C. until an OD600 nm of 1.5-2.0 was reached (˜4 hr). The culture was then diluted to an OD600 nm of 1.0 with LB, aliquoted and centrifuged at 10,000×g for 2 mins. The supernatant was removed and the pellet was resuspended in phosphate buffer (1×PBS, 12.5 mg/L MgCl2, 25 mg/L CaCl2, 0.1% Tween-80) to an OD600 nm of 0.5, then centrifuged again at 10,000x g for 2 mins. The supernatant was removed and the pellets were frozen at −20° C.
Test compounds were prepared in DMSO at a concentration of 10 mg/mL. These compound stocks were diluted into DMSO to a concentration of 25 μg/mL and serial 3-fold dilutions were made in DMSO, for a total of 11 compound concentrations. 20 nL of each compound solution was pre-spotted into a white 384-well plate (50 μL/well polypropylene, Nunc) using acoustic fluid transfer (Echo).
Frozen S. aureus pellets were resuspended in assay buffer (1x PBS, 12.5 mg/L MgCl2, 25 mg/L CaCl2, 0.1% Tween-80) to an OD600 nm of 0.05, then mixed 1:1 (v/v) with 20 μM substrate ((Dabcyl)βAla-KPAKAAE(Edans)) in assay buffer, and this solution was added (20 μL/well) to the 384-well plate that had been pre-spotted with compound. Fluorescence intensity was then immediately read kinetically for 30 minutes with 2 minute read intervals to monitor cleavage of the internally quenched peptide substrate (excitation wavelength=340 nm, emission wavelength=490 nm, Molecular Devices Spectramax M5). Reaction rate (slope) was plotted against inhibitor concentration to derive the IC50.

[5] = MRSA USA 300 NRS384, read-out: MIC (μg/mL) S. aureus
[6] = E. coli ATCC 25922, read-out: MIC (μg/mL) E. coli
[7] = read-out: MIC (μg/mL) S. aureus, MRSA USA 300 NRS384
[8] = read-out: MIC (μg/mL) E. coli, E. coli ATCC 25922

T1 sequence (P0A070 whole entry): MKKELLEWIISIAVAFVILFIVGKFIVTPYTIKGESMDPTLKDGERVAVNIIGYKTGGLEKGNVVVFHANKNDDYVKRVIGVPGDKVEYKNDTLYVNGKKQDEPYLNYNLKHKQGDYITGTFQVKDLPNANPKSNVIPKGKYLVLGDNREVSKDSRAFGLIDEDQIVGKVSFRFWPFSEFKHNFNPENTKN

SMILES	MIC [1, 5] [µg/mL]	MIC [2] [µg/mL]	MIC [3, 6] [µg/mL]	IC50 [4] [nM]	MIC [1, 7] [µg/mL]	MIC [3, 8] [µg/mL]
CCCCCCCCCCNCCC(=O)N(C)[C@@H]1C(=O)N[C@@H](C)C(=O)N[C@H](C(=O)NCC#N)Cc2ccc(OCCN)c(c2)-c2cc1ccc2OCCN [Compound 131]	0.047 (≈ 0.0628 µM)	1.8 (≈ 2.4 µM)	64 (≈ 85.5 µM)	0.74	–	–
CCCCCCCCCCNCC(=O)N(C)[C@@H]1C(=O)N[C@@H](C)C(=O)N[C@H](C(=O)NCC#N)Cc2ccc(OCCN)c(c2)-c2cc1ccc2OCCN [Compound 132]	–	3 (≈ 4.08 µM)	–	0.71	0.25 (≈ 0.34 µM)	> 64
CCCCCCCCCNCCCC(=O)N(C)[C@@H]1C(=O)N[C@@H](C)C(=O)N[C@H](C(=O)NCC#N)Cc2ccc(OCCN)c(c2)-c2cc1ccc2OCCN [Compound 133]	0.25 (≈ 0.334 µM)	> 4	> 64	1.1	–	–
CCCCCCCCNCCCCC(=O)N(C)[C@@H]1C(=O)N[C@@H](C)C(=O)N[C@H](C(=O)NCC#N)Cc2ccc(OCCN)c(c2)-c2cc1ccc2OCCN [Compound 134]	1.5 (≈ 2 µM)	> 4	> 64	3.5	–	–
CCCCc1ccc(-c2ccc(C(=O)N[C@@H](CCCCN)C(=O)N(C)[C@@H]3C(=O)N[C@@H](C)C(=O)N[C@H](C(=O)N[C@H](C)C#N)Cc4ccc(OCCN)c(c4)-c4cc3ccc4OCCN)cc2)cc1 [Compound 136]	2 (≈ 2.18 µM)	0.38 (≈ 0.415 µM)	8 (≈ 8.73 µM)	10	–	–
CCCCc1ccc(-c2cccc(C(=O)N[C@@H](CCCCN)C(=O)N(C)[C@@H]3C(=O)N[C@@H](C)C(=O)N[C@H](C(=O)NCC#N)Cc4ccc(OCCN)c(c4)-c4cc3ccc4OCCN)c2)cc1 [Compound 137]	0.063 (≈ 0.0698 µM)	0.063 (≈ 0.0698 µM)	4 (≈ 4.43 µM)	1.1	–	–
C[C@@H]1NC(=O)[C@@H](N(C)C(=O)[C@H](CCN)NC(=O)c2ccc(-c3ccc4c(c3)CCCC4)cc2)c2ccc(OCCN)c(c2)-c2cc(ccc2OCCN)C[C@@H](C(=O)NCC#N)NC1=O [Compound 138]	–	0.055 (≈ 0.0631 µM)	–	0.93	0.063 (≈ 0.0722 µM)	0.25 (≈ 0.287 µM)
C[C@@H]1NC(=O)[C@@H](N(C)C(=O)[C@H](CCN)NC(=O)c2ccc(-c3ccc4c(c3)CCCC4)cc2F)c2ccc(OCCN)c(c2)-c2cc(ccc2OCCN)C[C@@H](C(=O)NCC#N)NC1=O [Compound 139]	–	0.012 (≈ 0.0135 µM)	–	0.94	0.047 (≈ 0.0528 µM)	0.25 (≈ 0.281 µM)
C[C@@H]1NC(=O)[C@@H](N(C)C(=O)[C@H](CCN)NC(=O)c2ccc(-c3ccc4c(c3)CCCC4)cc2Cl)c2ccc(OCCN)c(c2)-c2cc(ccc2OCCN)C[C@@H](C(=O)NCC#N)NC1=O [Compound 140]	–	0.0078 (≈ 0.0086 µM)	–	0.99	0.031 (≈ 0.0342 µM)	0.13 (≈ 0.143 µM)
CCCCc1ccc(-c2ccc(C(=O)N[C@@H](CCCN)C(=O)N(C)[C@@H]3C(=O)N[C@@H](C)C(=O)N[C@H](C(=O)NCC#N)Cc4ccc(OCCN)c(c4)-c4cc3ccc4OCCN)c(C)c2)cc1 [Compound 142]	0.039 (≈ 0.0432 µM)	0.042 (≈ 0.0466 µM)	0.16 (≈ 0.177 µM)	0.72	–	–
Cc1cc(-c2ccc(C(F)(F)F)cc2)ccc1C(=O)N[C@@H](CCN)C(=O)N(C)[C@@H]1C(=O)N[C@@H](C)C(=O)N[C@H](C(=O)NCC#N)Cc2ccc(OCCN)c(c2)-c2cc1ccc2OCCN [Compound 143]	0.047 (≈ 0.0522 µM)	0.018 (≈ 0.02 µM)	0.44 (≈ 0.489 µM)	0.57	–	–
Cc1cc(-c2ccc(-c3ccccc3)cc2)ccc1C(=O)N[C@@H](CCN)C(=O)N(C)[C@@H]1C(=O)N[C@@H](C)C(=O)N[C@H](C(=O)NCC#N)Cc2ccc(OCCN)c(c2)-c2cc1ccc2OCCN [Compound 144]	0.031 (≈ 0.0341 µM)	0.053 (≈ 0.0584 µM)	0.16 (≈ 0.176 µM)	0.91	–	–
Cc1cc(-c2ccc(C(C)C)cc2)ccc1C(=O)N[C@@H](CCN)C(=O)N(C)[C@@H]1C(=O)N[C@@H](C)C(=O)N[C@H](C(=O)NCC#N)Cc2ccc(OCCN)c(c2)-c2cc1ccc2OCCN [Compound 145]	0.047 (≈ 0.0538 µM)	0.012 (≈ 0.0137 µM)	0.16 (≈ 0.183 µM)	0.59	–	–
Cc1cc(-c2ccc(CC(C)C)cc2)ccc1C(=O)N[C@@H](CCN)C(=O)N(C)[C@@H]1C(=O)N[C@@H](C)C(=O)N[C@H](C(=O)NCC#N)Cc2ccc(OCCN)c(c2)-c2cc1ccc2OCCN [Compound 146]	0.047 (≈ 0.0529 µM)	0.0078 (≈ 0.00878 µM)	< 0.063	0.9	–	–
C[C@@H]1NC(=O)[C@@H](N(C)C(=O)[C@H](CCN)NC(=O)c2ccc(-c3ccc(Cl)cc3)cc2)c2ccc(OCCN)c(c2)-c2cc(ccc2OCCN)C[C@@H](C(=O)NCC#N)NC1=O [Compound 147]	–	0.023 (≈ 0.027 µM)	–	0.69	0.094 (≈ 0.11 µM)	1.5 (≈ 1.76 µM)
Cc1cc(-c2ccc(Cl)cc2)ccc1C(=O)N[C@@H](CCN)C(=O)N(C)[C@@H]1C(=O)N[C@@H](C)C(=O)N[C@H](C(=O)NCC#N)Cc2ccc(OCCN)c(c2)-c2cc1ccc2OCCN [Compound 148]	0.055 (≈ 0.0635 µM)	0.0098 (≈ 0.0113 µM)	0.88 (≈ 1.02 µM)	0.75	–	–
Cc1cc(-c2ccccc2)ccc1C(=O)N[C@@H](CCN)C(=O)N(C)[C@@H]1C(=O)N[C@@H](C)C(=O)N[C@H](C(=O)NCC#N)Cc2ccc(OCCN)c(c2)-c2cc1ccc2OCCN [Compound 149]	0.19 (≈ 0.228 µM)	0.023 (≈ 0.0276 µM)	3 (≈ 3.61 µM)	0.8	–	–
Cc1cc(-c2ccccc2)ccc1C(=O)N[C@@H](CCCN)C(=O)N(C)[C@@H]1C(=O)N[C@@H](C)C(=O)N[C@H](C(=O)NCC#N)Cc2ccc(OCCN)c(c2)-c2cc1ccc2OCCN [Compound 150]	0.25 (≈ 0.296 µM)	0.063 (≈ 0.0745 µM)	4 (≈ 4.73 µM)	0.82	–	–
CCc1ccc(-c2ccc(C(=O)N[C@@H](CCN)C(=O)N(C)[C@@H]3C(=O)N[C@@H](C)C(=O)N[C@H](C(=O)NCC#N)Cc4ccc(OCCN)c(c4)-c4cc3ccc4OCCN)c(C)c2)cc1 [Compound 151]	0.031 (≈ 0.036 µM)	0.012 (≈ 0.014 µM)	0.31 (≈ 0.36 µM)	0.59	–	–
CCc1ccc(-c2ncc(C(=O)N[C@@H](CCN)C(=O)N(C)[C@@H]3C(=O)N[C@@H](C)C(=O)N[C@H](C(=O)NCC#N)Cc4ccc(OCCN)c(c4)-c4cc3ccc4OCCN)c(C)n2)cc1 [Compound 155]	0.13 (≈ 0.151 µM)	0.0098 (≈ 0.0114 µM)	0.44 (≈ 0.51 µM)	2.5	–	–
Cc1nc(-c2ccc(CC(C)C)cc2)ncc1C(=O)N[C@@H](CCN)C(=O)N(C)[C@@H]1C(=O)N[C@@H](C)C(=O)N[C@H](C(=O)NCC#N)Cc2ccc(OCCN)c(c2)-c2cc1ccc2OCCN [Compound 157]	0.023 (≈ 0.0258 µM)	0.0034 (≈ 0.00382 µM)	0.098 (≈ 0.11 µM)	0.79	–	–
CCCCCCc1ccc(-c2ncc(C(=O)N[C@@H](CCN)C(=O)N(C)[C@@H]3C(=O)N[C@@H](C)C(=O)N[C@H](C(=O)NCC#N)Cc4ccc(OCCN)c(c4)-c4cc3ccc4OCCN)c(C)n2)cc1 [Compound 159]	0.063 (≈ 0.0686 µM)	< 0.0039	0.13 (≈ 0.142 µM)	0.82	–	–
Cc1nc(-c2ccc(C(C)C)cc2)ncc1C(=O)N[C@@H](CCN)C(=O)N(C)[C@@H]1C(=O)N[C@@H](C)C(=O)N[C@H](C(=O)NCC#N)Cc2ccc(OCCN)c(c2)-c2cc1ccc2OCCN [Compound 160]	0.047 (≈ 0.0537 µM)	0.0039 (≈ 0.00445 µM)	0.13 (≈ 0.148 µM)	0.66	–	–
CCCCCc1ccc(-c2ncc(C(=O)N[C@@H](CCN)C(=O)N(C)[C@@H]3C(=O)N[C@@H](C)C(=O)N[C@H](C(=O)NCC#N)Cc4ccc(OCCN)c(c4)-c4cc3ccc4OCCN)c(C)n2)cc1 [Compound 162]	0.023 (≈ 0.0254 µM)	0.0025 (≈ 0.00277 µM)	0.063 (≈ 0.0697 µM)	0.72	–	–
